# PubChem BioAssay (NCI)
#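 These data come from cells grown in 96-well plates and exposed to compound for 48 hours at five concentrations. At the GI50, growth is halved. TGI: concentration producing complete growth inhibition.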
# What was measured:
# Assay in all cases: NCI anticancer screen, dose series, 48 h
# [1] = test system: SK-MEL-28 melanoma
# [2] = test system: ACHN renal
# [3] = test system: U251 CNS
# [4] = test system: NCI-H522 lung
# [5] = test system: UACC-257 melanoma
# [6] = test system: UACC-62 melanoma
# [7] = test system: NCI-H23 lung
# [8] = test system: 786-0 renal
# [9] = test system: RPMI-8226 leukemia
# [10] = test system: MALME-3M melanoma
# [11] = test system: SR leukemia
# [12] = test system: SNB-75 CNS
# [13] = test system: MOLT-4 leukemia
# [14] = test system: TK-10 renal
# [15] = test system: KM12 colon
# [16] = test system: SN12C renal
# [17] = test system: SNB-19 CNS
# [18] = test system: HCT-15 colon
# [19] = test system: OVCAR-8 ovarian
# [20] = test system: CCRF-CEM leukemia
# [21] = test system: LOX IMVI melanoma
# [22] = test system: HCT-116 colon
# [23] = test system: EKVX NSCLC
# [24] = test system: HT29 colon
# [25] = test system: K-562 leukemia
# [26] = test system: BT-549 breast
# [27] = test system: OVCAR-3 ovarian
# [28] = test system: MCF7 breast
# [29] = test system: DU-145 prostate
structure (smiles),measurement,setting,value
CCCn1cnc2c(c1=N)C(c1ccc(Cl)cc1)c1sc3c(C)cccc3c1O2 (stereo unspecified),GI50,[1],2340 nM
same,TGI,[1],21900 nM
same,GI50,[2],791 nM
same,TGI,[2],14900 nM
same,GI50,[3],432 nM
same,TGI,[3],11300 nM
same,GI50,[4],387 nM
same,TGI,[4],5700 nM
same,GI50,[5],8900 nM
same,TGI,[5],29000 nM
same,GI50,[6],490 nM
same,TGI,[6],15000 nM
same,GI50,[7],587 nM
same,TGI,[7],13100 nM
same,GI50,[8],558 nM
same,TGI,[8],11200 nM
same,GI50,[9],381 nM
same,TGI,[9],3720 nM
same,GI50,[10],10200 nM
same,TGI,[10],25100 nM
same,GI50,[11],377 nM
same,TGI,[11],5990 nM
same,GI50,[12],237 nM
same,TGI,[12],2660 nM
same,GI50,[13],498 nM
same,TGI,[13],7700 nM
same,GI50,[14],5690 nM
same,TGI,[14],24000 nM
same,GI50,[15],443 nM
same,TGI,[15],11200 nM
same,GI50,[16],879 nM
same,TGI,[16],13300 nM
same,GI50,[17],527 nM
same,TGI,[17],17600 nM
same,GI50,[18],409 nM
same,TGI,[18],4930 nM
same,GI50,[19],522 nM
same,TGI,[19],11400 nM
same,GI50,[20],380 nM
same,GI50,[21],701 nM
same,TGI,[21],6730 nM
same,GI50,[22],410 nM
same,TGI,[22],2150 nM
same,GI50,[23],572 nM
same,TGI,[23],19400 nM
same,GI50,[24],402 nM
same,TGI,[24],5110 nM
same,GI50,[25],283 nM
same,TGI,[25],4200 nM
same,GI50,[26],1490 nM
same,TGI,[26],6890 nM
same,GI50,[27],283 nM
same,TGI,[27],1050 nM
same,GI50,[28],339 nM
same,TGI,[28],10800 nM
same,GI50,[29],444 nM
